The numbers were not newly measured in patent US6900339B2, “Bryostatin composition and bryostatin acquisition methodologies” (The University of North Carolina at Chapel Hill, priority 2002, dated 2005), which cites them from elsewhere.

This data set deals with leukemia. The note with it: background statement.

For the molecule `CCC/C=C/C=C/C(=O)O[C@H]1/C(=C/C(=O)OC)C[C@H]2C[C@H]([C@@H](C)O)OC(=O)C[C@H](O)C[C@@H]3C[C@H](OC(C)=O)C(C)(C)[C@](O)(C[C@@H]4C/C(=C/C(=O)OC)C[C@H](/C=C/C(C)(C)[C@]1(O)O2)O4)O3` [bryostatin 1], the effectiveness against leukemia entry was “particularly effective”.
